Tests used:
[1] = target: bovine serum albumin (BSA) (Bos taurus, UniProt P02769); conditions: excitation 488 nm
Description: A solution of Compound 5 (1 μM) was prepared in phosphate-buffered saline (PBS) (50 mM phosphate buffer, pH 7.4, 150 mM NaCl). A 2 mL portion of this solution was transferred to a 10 mm×10 mm quartz cuvette. The fluorescence emission spectrum of the solution was recorded on a Hitachi F-4500 spectrofluorometer using excitation at 488 nm. 1 μL of a 4.5 mM solution of bovine serum albumin (30% (w/v) BSA (Sigma Chemical Co., St. Louis, Mo., catalog number A-7284)) was then added to the 2 mL of aqueous dye solution. The emission scan measurement was then repeated. Further measurements were made as the amount of added BSA was increased up to 4.5 μM.

[2] = Dependence of fluorescence emission spectra on solvent; type: physicochemical; conditions: 1 μM; MeOH and aqueous buffer (50 mM Tris pH 7.5) vs DMSO; excitation 488 nm
Description: Solutions of Compound 5 (1 μM) were prepared in dimethylsulfoxide (DMSO), methanol (MeOH) and aqueous buffer (50 mM Tris pH 7.5). 2 mL portions of these solutions were transferred to 10 mm×10 mm quartz cuvettes and fluorescence emission spectra were recorded on a Hitachi F-4500 spectrofluorometer using identical instrument detection sensitivity settings. Excitation was at 488 nm in all cases. For the DMSO and MeOH solutions, the spectra were re-scanned after addition of a small amount of 0.1 M NaOH to the 2 mL solution sample. Results are plotted in FIG. 3A and FIG. 3B. FIG. 3B represents an approximately 10-fold enlargement on the y-axis of FIG. 3A.

bovine serum albumin (BSA), sequence (P02769 25-607): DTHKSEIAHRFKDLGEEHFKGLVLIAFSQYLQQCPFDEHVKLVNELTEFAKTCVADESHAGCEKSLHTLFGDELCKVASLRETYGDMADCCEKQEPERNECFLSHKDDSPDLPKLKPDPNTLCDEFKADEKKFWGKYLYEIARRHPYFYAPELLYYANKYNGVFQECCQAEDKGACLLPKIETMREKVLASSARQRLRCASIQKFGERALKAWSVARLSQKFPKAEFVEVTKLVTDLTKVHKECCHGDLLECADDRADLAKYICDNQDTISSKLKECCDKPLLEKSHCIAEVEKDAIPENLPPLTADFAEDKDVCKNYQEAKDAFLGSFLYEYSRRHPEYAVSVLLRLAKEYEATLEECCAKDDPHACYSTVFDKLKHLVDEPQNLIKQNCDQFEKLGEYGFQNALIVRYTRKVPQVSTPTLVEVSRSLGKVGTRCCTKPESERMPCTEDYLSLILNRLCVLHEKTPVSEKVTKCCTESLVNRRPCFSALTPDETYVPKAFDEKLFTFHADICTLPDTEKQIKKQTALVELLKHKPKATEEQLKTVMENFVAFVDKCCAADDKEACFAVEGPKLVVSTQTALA

- change of fluorescence upon binding to BSA ([1]; 1 μM dye in PBS pH 7.4, BSA 0-5 μM): fluorescence enhancement
- fluorescence emission peak ([1]; in PBS with BSA): 540 nm
- fluorescence of the dye in MeOH and aqueous buffer relative to that in DMSO [2]: extremely weak fluorescence
SMILES: CC(=O)O.Cc1c2ccccc2c(-c2cc3c(-c4ccccc4C(=O)O)c4cc(Cl)c(O)cc4oc-3cc2=O)c2ccccc12 [Compound 5]
